From patent publication US20250282798A1, “HETEROARYL-SUBSTITUTED BICYCLIC COMPOUND AND USE THEREOF” (Medshine Discovery Inc., priority 2022, published 2025) come the findings set out here.

Holding throughout (assay type): in vitro ADME
In series [1] the test system is MDR1-MDCK II cell line. As to the kind of experiment: Permeability evaluation in MDR1-MDCK II cells. Here is the method:
(§1) Cell line: The MDR1-MDCK II cell line authorized by Piet Borst's laboratory at the Netherlands Cancer Research Institute was used in this assay as an in vitro model for the permeability evaluation assay. The cells were inoculated in a Transwell-96 well cell plate at a density of 2.3×10^5 cells/cm^2, and cultured in a carbon dioxide incubator for 4-7 days before use in the transport assay.
(§2) The administration concentration of the test sample was 2.00 μM.
(§3) Test direction and number of parallel samples: bidirectional A-B and B-A, 2 parallels
(§4) Transport buffer (TB): HBSS solution containing 10 mM HEPES (pH 7.40±0.05)
(§5) Incubation conditions: 37±1° C., 5% CO2, incubated for 150 minutes
(§6) Control compounds: Nadolol and metoprolol were used as low-permeability and high-permeability control compounds. Digoxin was used as a substrate of P-glycoprotein. The administration concentration of nadolol and metoprolol was 2.00 μM, and the administration concentration of digoxin was 10.0 μM.
(§7) After the transport assay, the integrity of the MDR1-MDCK II cell layer was assayed by the Lucifer Yellow Rejection Assay. The remaining solution in the apical and basolateral wells was removed. 75 μL of TB containing 100 μM Lucifer Yellow was added to the apical well, and 250 μL of TB was added to the basolateral well. The cell plate was incubated in a cell culture incubator at 37±1° C., 5% CO2 and saturated humidity for 30 minutes. Then, 20 μL of sample was taken from the apical well and mixed with 60 μL of TB, and 80 μL of sample was taken from the basolateral well. The relative fluorescence unit (RFU) was measured at 425/528 nm (excitation/emission) using a microplate reader.
(§8) In this assay, the sample analysis of the test samples and control compounds of nadolol, metoprolol, and digoxin was performed by liquid chromatography-tandem mass spectrometry (LC-MS/MS). The retention time of the analytes and internal standards, chromatogram acquisition, and chromatogram integration were processed using the software Analyst (Sciex, Framingham, MA, USA). The sample analysis was semi-quantitatively determined using the peak area of analyte and the peak area of internal standard.
(§9) VR is the volume of the receiver end solution (0.075 mL for side A, and 0.25 mL for side B); Area is the relative surface area of the cell monolayer (0.0804 cm2); Time is the incubation time (9000 s); C0 is the peak area ratio of the compound at the administration end; VD is the volume of the administration end (0.075 mL for side A, and 0.25 mL for side B); CD and CR are the peak area ratios of the compound at the administration end and the receiver end, respectively.

Series [2] can be described thus: Permeability evaluation in MDR1-MDCK II cells. Particulars: dog. Here is the method:
as §1, §2, §3, §4, §5, §6, §7, §8, §9

The subject of series [3] is MDR1 (P-glycoprotein). As to the kind of experiment: Permeability evaluation in MDR1-MDCK II cells. The settings on record: dog, pH 7.4, 2.00 μM, 150 minutes. The procedure: as §1, §2, §3, §4, §5, §6, §7, §8, §9

Consider `Cn1ccc2c(-c3ncc(Nc4ccc5c(n4)OC[C@@H]4COCCN54)c4c3CNC4=O)ccnc21` [Compound 4], for which, in series [1] (2.00 μM, 150 minutes), the Efflux ratio is recorded as 4.97, the “Permeability Papp A to B” value is given as 5.20 10^−6 cm/s and the “Permeability Papp B to A” value is recorded as 25.84 10^−6 cm/s. The “Conclusion of the permeability” value in series [1] (class by Papp) is “Medium (Medium permeability 1.0 < Papp < 5.5 (×10^−6 cm/s))”.
For the compound `O=C1NCc2c(-c3cnc4cc(F)ccn34)ccc(Nc3ccc4c(n3)OC[C@@H]3COCCN43)c21` [Compound 8], in series [2] (pH 7.4, 2.00 μM, 150 minutes), the Papp A→B at 150 min, 2 μM turned out to be 1.97 ×10⁻⁶ cm/s and the Papp B→A at 150 min, 2 μM came to 14.2 ×10⁻⁶ cm/s. Also, the Papp at 150 min, 2 μM in series [2] (pH 7.4, class by Papp, read-out: Conclusion of the permeability) fell in the range of 1 to 5.5 ×10⁻⁶ cm/s. In addition, in series [3], the efflux ratio at 150 min, 2 μM was determined as 7.19.
